Results published in patent publication US20250091911A1, “NANOFILTRATION SYSTEM AND METHOD INCLUDING PRETREATMENT WITH GREEN SORPTION MEDIA” (University of Central Florida Research Foundation, Inc., priority 2023, published 2025).

Columns and labels:
[1] = Fixed-bed column pretreatment of spiked C-23 canal water with ZIPGEM; settings: for Removal via column C1: ZIPGEM column 1, 30 h; for Removal via column C2: ZIPGEM column 2, 30 h; for Removal via column C3 / average removal percentage by media: ZIPGEM; for Removal via column C3: 30 h; for average removal percentage by media: triplicate columns
Procedure: (§1) The water samples were collected from the same site of the C-23 canal during both the dry and wet seasons. However, only wet season water samples were used in the experiment. The water samples were analyzed for both long-chain (PFOA and PFOS) and short-chain (Perfluorobutanoic acid [PFBA] and Perfluorobutanesulfonic acid [PFBS]) PFAS following the modified EPA 537.1 method (Shoemaker & Tettenhorst, 2020). Through this method, an aliquot of a 250 mL water sample containing analytes and internal standards is extracted via solid phase extraction. The extracted analytes and internal standards are then eluted with methanol and ammonium hydroxide in methanol solvent. Then the eluted samples are dried with nitrogen and reconstituted to 1 mL volume with a buffer solution. The samples are then injected into a C18 liquid chromatography column, and the PFAS compounds are separated by a gradient of pure methanol and 20 mM ammonium acetate. Finally, the eluted compounds are detected, and their concentrations are measured via tandem mass spectrometry. The method detection limits (MDLs) for PFBA, PFBS, PFOA, and PFOS were 0.5 ng·L^−1, 2 ng·L^−1, 0.5 ng·L^−1, and 1 ng·L^−1, respectively. The concentration of calcium ion (Ca^2+) was analyzed at Eurofins Flowers's Chemical Laboratories (Altamonte Springs, Florida) following EPA method 6010D using inductively coupled plasma optical emission spectroscopy (MDL=0.096 mg·L^−1). Total organic carbon (TOC) and dissolved organic carbon (DOC) were measured using a TOC analyzer following EPA method 415.3.
Water samples collected from the C-23 canal were first fortified with PFOS and PFOA and then used as influents to the pretreatment column containing one of the two green sorption media. Note the water samples were not fortified with PFBA and PFBS. The green sorption media effluent served as the feedwater for the nanofiltration unit of the proposed water treatment system. The nanofiltration membrane unit without any green sorption media-based pretreatment served as the “control.” The integration of a green sorption media (CPS or ZIPGEM) with crossflow nanofiltration is herein referred to as a water treatment system, denoted as CPS-nanofiltration or ZIPGEM-nanofiltration. The CPS and ZIPGEM column influents and effluents and nanofiltration permeates were analyzed for both long-chain (PFOS and PFOA) and short-chain (PFBS and PFBA) PFAS. FIG. 3 presents the green sorption media-nanofiltration hybrid treatment scheme.
C-23 canal water was stored in a walk-in refrigerator at […] after collection. For the pretreatment experiment, a total of 60 L of water was used as influents to the CPS and ZIPGEM columns. Although the raw water was spiked with 70 ng·L^−1 of PFOA and PFOS each, the short-chain PFAS (PFBA, PFBS) were at their indigenous concentrations. A peristaltic pump was used to deliver the water to the columns at a constant flowrate of 14 ml·min^−1. Three columns (triplicate) with 3 ft length and 4-inch diameter containing 2,600 ml of media were set up for each media, and all samples were analyzed in triplicate (FIG. 4). The fixed-bed column experiments were run for more than 48 h, and effluents were taken at different time intervals to be used as feedwaters for the nanofiltration treatment that followed. […] At least 5 L of column effluent were collected to be used as the nanofiltration feed, and the stated effluent at 9 h for CPS was collected from 0 h until 9 h, whereas effluent at 30 h for ZIPGEM was collected from 9 h until 30 h. The collected effluents from the column study were stored in a refrigerator until they were used for the nanofiltration experiment. FIG. 4 illustrates the experimental setup for the pretreatment CPS and ZIPGEM process.
The average removal efficiencies of each media pretreatment were calculated based on PFAS concentrations in the influents and effluents of triplicate columns, as disclosed in TABLE 5. […]

[2] = Crossflow nanofiltration of ZIPGEM-pretreated water; settings: for PFAS concentration, membrane permeates (MP): ZIPGEM-nanofiltration @ 30 h
Procedure: as §1
(§2) A commercially available nanofiltration membrane (membrane ID: XN45) was used for the crossflow nanofiltration experiment. The membranes were acquired as flat sheets and cut into coupons of required sizes (active surface area of 42 cm^2) to fit into a membrane cell (CF042).
(§3) A bench-scale crossflow filtration setup was used in these experimental methods. The experimental setup consisted of a feed tank, a centrifugal pump, three CF042 membrane cells connected to pressure gauges, check valves, and flowmeters. A recirculating chiller was used for regulating the temperature at 20° C. Three high-precision balances were used to measure the weight of the collected permeate and to calculate the flowrates. The scales were connected to a computer for data acquisition.
(§4) Before each experimental run, the membrane cells and tubing were cleaned by running DI water as feed without placing any membrane coupons inside the cells. Then the membrane coupons were mounted into the cells firmly and compacted at 100 psi for at least 4 h using DI water. After that, 5 L of the effluents from the pretreatment media (i.e., the C-23 water samples that were run through the CPS and ZIPGEM) were taken as feedwater for each nanofiltration filtration experiment. The experiments were run for 24 h before collecting permeates and feed samples for analysis. The experiments were conducted at a constant flowrate of 1.0 L·min^−1, with a corresponding cross flow velocity of 0.18 m·s^−1. The transmembrane pressure was initially set to 110 psi at the beginning of the permeate collection by regulating inlet and retentate valves. However, the pressure changed over time as feed concentration increased during the permeate collection. The experiment was run in total recirculation mode, whereby both the retentate and permeate were recycled, except the time of permeate collection.
(§5) The average removal efficiencies of each media pretreatment were calculated based on PFAS concentrations in the influents and effluents of triplicate columns, as disclosed in TABLE 5. […] The overall efficiency of the hybrid treatment was calculated by comparing the average concentrations of PFAS in the influents of the green sorption media pretreatment columns and the nanofiltration permeates, as disclosed in TABLE 6. […]

[3] = Crossflow nanofiltration of CPS-pretreated water; settings: for PFAS concentration, membrane permeates (MP): CPS-nanofiltration @ 9 h
Procedure: as §1, §2, §3, §4, §5

[4] = cited from earlier work
[5] = feed = ZIPGEM column 1 effluent
[6] = feed = ZIPGEM column 2 effluent
[7] = feed = ZIPGEM column 3 effluent

Structure (SMILES): O=S(=O)(O)C(F)(F)C(F)(F)C(F)(F)C(F)(F)C(F)(F)C(F)(F)C(F)(F)C(F)(F)F [PFOS, Perfluorooctanesulfonic acid]
- Removal via column C1 [1]: 100%
- Removal via column C2 [1]: 100%
- Removal via column C3 [1]: 100%
- average removal percentage by media [1]: 100
- PFAS concentration, membrane permeates (MP) ([2]; Col 1): 1.70 ng/L
- PFAS concentration, membrane permeates (MP) ([2]; Col 2): 0.79 ng/L
- PFAS concentration, membrane permeates (MP) ([2]; Col 3): 1.05 ng/L
- nanofiltration membrane removal [2, 5]: 100%
- nanofiltration membrane removal [2, 6]: 100%
- nanofiltration membrane removal [2, 7]: 100%
- PFAS concentration, membrane permeates (MP) ([3]; Col 1): 2.0 ng/L
- PFAS concentration, membrane permeates (MP) ([3]; Col 2): 1.90 ng/L
- PFAS concentration, membrane permeates (MP) ([3]; Col 3): 0.74 ng/L
- nanofiltration membrane removal ([3]; feed = CPS column 1 effluent): 100%
- nanofiltration membrane removal ([3]; feed = CPS column 2 effluent): 100%
- nanofiltration membrane removal ([3]; feed = CPS column 3 effluent): 100%
- pKa [4]: 0.14

Structure (SMILES): O=S(=O)(O)C(F)(F)C(F)(F)C(F)(F)C(F)(F)F [PFBS, Perfluorobutanesulfonic acid]
- Removal via column C1 [1]: 6%
- Removal via column C2 [1]: 5%
- Removal via column C3 [1]: −1%
- average removal percentage by media [1]: 3.3
- PFAS concentration, membrane permeates (MP) ([2]; Col 1): 4.67 ng/L
- PFAS concentration, membrane permeates (MP) ([2]; Col 2): 4.23 ng/L
- PFAS concentration, membrane permeates (MP) ([2]; Col 3): 5.10 ng/L
- nanofiltration membrane removal [2, 5]: 23%
- nanofiltration membrane removal [2, 6]: 32%
- nanofiltration membrane removal [2, 7]: 36%
- PFAS concentration, membrane permeates (MP) ([3]; Col 1): 3.27 ng/L
- PFAS concentration, membrane permeates (MP) ([3]; Col 2): 3.40 ng/L
- PFAS concentration, membrane permeates (MP) ([3]; Col 3): 2.67 ng/L
- nanofiltration membrane removal ([3]; feed = CPS column 1 effluent): 26%
- nanofiltration membrane removal ([3]; feed = CPS column 2 effluent): 15%
- nanofiltration membrane removal ([3]; feed = CPS column 3 effluent): 35%
- pKa [4]: 0.14

Structure (SMILES): O=C(O)C(F)(F)C(F)(F)C(F)(F)C(F)(F)C(F)(F)C(F)(F)C(F)(F)F [PFOA, Perfluorooctanoic acid]
- Removal via column C1 [1]: 19%
- Removal via column C2 [1]: 19%
- Removal via column C3 [1]: 4%
- average removal percentage by media [1]: 14
- PFAS concentration, membrane permeates (MP) ([2]; Col 1): 21.67 ng/L
- PFAS concentration, membrane permeates (MP) ([2]; Col 2): 14.00 ng/L
- PFAS concentration, membrane permeates (MP) ([2]; Col 3): 23.67 ng/L
- nanofiltration membrane removal [2, 5]: 66%
- nanofiltration membrane removal [2, 6]: 78%
- nanofiltration membrane removal [2, 7]: 68%
- PFAS concentration, membrane permeates (MP) ([3]; Col 1): 2.27 ng/L
- PFAS concentration, membrane permeates (MP) ([3]; Col 2): 5.83 ng/L
- PFAS concentration, membrane permeates (MP) ([3]; Col 3): 2.43 ng/L
- nanofiltration membrane removal ([3]; feed = CPS column 1 effluent): 40%
- nanofiltration membrane removal ([3]; feed = CPS column 2 effluent): 58%
- nanofiltration membrane removal ([3]; feed = CPS column 3 effluent): 78%
- pKa [4]: −0.20

Structure (SMILES): O=C(O)C(F)(F)C(F)(F)C(F)(F)F [PFBA, Perfluorobutanoic acid]
- Removal via column C1 [1]: 5%
- Removal via column C2 [1]: 5%
- Removal via column C3 [1]: 8%
- average removal percentage by media [1]: 6
- PFAS concentration, membrane permeates (MP) ([2]; Col 1): 4.43 ng/L
- PFAS concentration, membrane permeates (MP) ([2]; Col 2): 4.77 ng/L
- PFAS concentration, membrane permeates (MP) ([2]; Col 3): 4.70 ng/L
- nanofiltration membrane removal [2, 5]: 37%
- nanofiltration membrane removal [2, 6]: 32%
- nanofiltration membrane removal [2, 7]: 36%
- PFAS concentration, membrane permeates (MP) ([3]; Col 1): 3.20 ng/L
- PFAS concentration, membrane permeates (MP) ([3]; Col 2): 4.17 ng/L
- PFAS concentration, membrane permeates (MP) ([3]; Col 3): 3.60 ng/L
- nanofiltration membrane removal ([3]; feed = CPS column 1 effluent): 47%
- nanofiltration membrane removal ([3]; feed = CPS column 2 effluent): 28%
- nanofiltration membrane removal ([3]; feed = CPS column 3 effluent): 33%
- pKa [4]: 0.40
